Source: publication PMC6153549 (Investigational New Drugs, 2018)
Several values for one entry are separate records, joined by “and”; a condition that tells them apart may be missing. Equal values may be shown once. Read-outs that look alike come from different tables or passages of the source.

Assays:
[1] = tested on: UGTs; conditions: in vitro, human liver microsomes; cited from earlier work
[2] = design: method as in PMID 28070719; reduction of exposure to sunitinib by paracetamol / reduction of exposure to sunitinib in liver by paracetamol / reduction of exposure to sunitinib in kidneys by paracetamol / reduction of exposure to sunitinib in brain by paracetamol: concentration or dose not given beside the values; conditions: cited from earlier work
[3] = male mice which received paracetamol; cited from earlier work
[4] = liver metabolism; cited from earlier work
[5] = Plasma pharmacokinetics of paracetamol, paracetamol glucuronide and paracetamol sulphate in rats (HPLC-UV, non-compartmental); assay type: in vivo, Wistar rats; conditions: for AUC(0-inf) / Vd/F / k el / AUC0-t / Cmax / MRT last / AUMC0-t / t0.5 / AUC0-∞: plasma; for MRT last: read-out: MRT0-t
Protocol: The experimental protocol for this study was reviewed and approved by the Local Ethics Committee. All procedures were performed in accordance with the European Union regulations concerning the handling and use of laboratory animals. The study was based on the required minimum number of animals and observation time in order to obtain consistent data. […] The animals were allowed to acclimatise for a week before the beginning of the experiments. The rats were divided into three groups. […] In order to make sure that the animals received the entire dose of the drug, 1 mL of DMSO was then administered to rinse the probe. 80 μL of blood was collected from each rat by cutting off a piece of his tail. […] The blood samples were transferred into heparinised tubes and they were centrifuged at 2880 g for 10 min at 4 °C.
The total time of analysis for each run was 10 min. The column temperature was maintained at 25 °C, the UV detection wavelength was set at 261 nm, and the injection volume was 50 μL. The validation was performed according to the guidelines of the European Medicines Agency (EMA) concerning validation of bioanalytical methods. […] 20 μL of the internal standard solution and 200 μL of 6% perchloric acid were added to 100 μL of the rat plasma. The samples were shaken for 30 s and then they were centrifuged for 10 min at 5000 g. About 100 μL of the resulting supernatants was transferred into glass inserts and a volume of 50 μL was injected onto HPLC column.
The pharmacokinetic parameters were estimated with the non-compartmental method, using Phoenix® WinNonlin® 7.0 software (Certara L.P.). kel – elimination rate constant; AUC0-t – area under the plasma concentration-time curve from zero to the time of the last measurable concentration; AUC0-∞ – area under the plasma concentration-time curve from zero to infinity; t0.5 – elimination half-life; Cl/F – clearance; Vd/F – volume of distribution; Cmax – maximum plasma concentration; tmax – time necessary to reach the maximum concentration; MRT0-t – mean residence time; AUMC0-t – area under the first moment curve.

[6] = lapatinib administered together with leucovorin, irinotecan and 5-fluorouracil; cited from earlier work
[7] = male, Wistar, rat, po, 100 mg/kg, paracetamol 100 mg/kg p.o. + lapatinib 100 mg/kg p.o. (IL + PA), M ± SD
[8] = male, Wistar, rat, po, 100 mg/kg, paracetamol 100 mg/kg p.o. alone (IIIPA), M ± SD
[9] = paracetamol 100 mg/kg p.o. + lapatinib 100 mg/kg p.o. (IL + PA), M ± SD
[10] = paracetamol 100 mg/kg p.o. alone (IIIPA), M ± SD
[11] = IL + PA vs IIIPA group, listed as paracetamol glucoronide
[12] = paracetamol + lapatinib 100 mg/kg p.o. each (IL + PA), M ± SD

Question: Which “inhibition of paracetamol glucuronidation” value (from here on “inhibition”) [1] does the source give for `Cc1ccc(NC(=O)c2ccc(CN3CCN(C)CC3)cc2)cc1Nc1nccc(-c2cccnc2)n1` [imatinib] here?
Answer: inhibited paracetamol glucuronidation

Question: With `COc1cc2c(Nc3ccc(Br)cc3F)ncnc2cc1OCC1CCN(C)CC1` [vandetanib] as the molecule, how does the “inhibition” value [1] read?
Answer: slight inhibitory effect

Question: For `C#Cc1cccc(Nc2ncnc3cc(OCCOC)c(OCCOC)cc23)c1` [erlotinib, Erlotinib], which “inhibition” value [1] is on record?
Answer: slight inhibitory effect

Question: For `CCN(CC)CCNC(=O)c1c(C)[nH]c(/C=C2\C(=O)Nc3ccc(F)cc32)c1C` [sunitinib], which “effect of paracetamol on sunitinib concentration” value ([2]; female mice) is on record?
Answer: did not affect the concentration

Question: And the “reduction of exposure to sunitinib in brain by paracetamol” value ([2]; female mice)?
Answer: 50%

Question: What about the “reduction of exposure to sunitinib in kidneys by paracetamol” value ([2]; female mice) of the same molecule?
Answer: 20%

Question: What about the “reduction of exposure to sunitinib in liver by paracetamol” value ([2]; female mice) of the same molecule?
Answer: 9%

Question: What about the “reduction of exposure to sunitinib by paracetamol” value ([2]; male mice) of the same molecule?
Answer: 29%

Question: And the “reduction of exposure to sunitinib in brain by paracetamol” value ([2]; male mice)?
Answer: 47%

Question: What about the “reduction of exposure to sunitinib in kidneys by paracetamol” value ([2]; male mice) of the same molecule?
Answer: 15%

Question: What about the “reduction of exposure to sunitinib in liver by paracetamol” value ([2]; male mice) of the same molecule?
Answer: 15%

Question: What about the “kidney sunitinib concentration vs control group” value [3] of the same molecule?
Answer: 1.4 times

Question: And the “liver sunitinib concentration vs control group” value [3]?
Answer: 2.2 times

Question: With `CC(=O)Nc1ccc(O)cc1` [paracetamol, Paracetamol] as the molecule, how does the “fraction oxidised to toxic metabolite NAPQI” value [4] read?
Answer: less than 10%

Question: And the “fraction transformed by glucuronidation” value [4]?
Answer: 40–60%

Question: And the “fraction transformed by sulphation” value [4]?
Answer: 20–46%

Question: And the “decrease in AUC0-t” value ([5]; IL + PA vs IIIPA group)?
Answer: ~56.8%

Question: And the “decrease in AUC0-∞” value ([5]; IL + PA vs IIIPA group)?
Answer: 48.8%

Question: What about the “increase in MRT0-t” value ([5]; IL + PA vs IIIPA group) of the same molecule?
Answer: 12.1%

Question: What about the “increase in Vd/F” value ([5]; IL + PA vs IIIPA group) of the same molecule?
Answer: 351.5%

Question: What about the AUC(0-inf) [5, 7] of the same molecule?
Answer: 45400 ± 21200 ng·h/mL

Question: What about the Vd/F [5, 7] of the same molecule?
Answer: 8.94 ± 8.04 L

Question: What about the k el [5, 7] of the same molecule?
Answer: 6.67e-05 s⁻¹

Question: What about the AUC0-t ([5]; male, Wistar, rat, po, 100 mg/kg, paracetamol 100 mg/kg p.o. + lapatinib 100 mg/kg p.o. (IL + PA), M ± SD, read-out: AUC0-t) of the same molecule?
Answer: 34800 ± 20100 ng·h/mL

Question: And the Cmax ([5]; male, Wistar, rat, po, 100 mg/kg, paracetamol 100 mg/kg p.o. + lapatinib 100 mg/kg p.o. (IL + PA), M ± SD, read-out: Cmax)?
Answer: 10900 ± 6880 ng/mL

Question: And the MRT last [5, 7]?
Answer: 2.88 ± 0.27 h

Question: And the AUC(0-inf) [5, 8]?
Answer: 88600 ± 8960 ng·h/mL

Question: And the Vd/F [5, 8]?
Answer: 1.98 ± 0.63 L

Question: And the k el [5, 8]?
Answer: 9.17e-05 s⁻¹

Question: What about the AUC0-t ([5]; male, Wistar, rat, po, 100 mg/kg, paracetamol 100 mg/kg p.o. alone (IIIPA), M ± SD, read-out: AUC0-t) of the same molecule?
Answer: 80500 ± 12100 ng·h/mL

Question: And the Cmax ([5]; male, Wistar, rat, po, 100 mg/kg, paracetamol 100 mg/kg p.o. alone (IIIPA), M ± SD, read-out: Cmax)?
Answer: 24700 ± 8430 ng/mL

Question: What about the MRT last [5, 8] of the same molecule?
Answer: 2.57 ± 0.3 h

Question: What about the AUMC0-t [5, 9] of the same molecule?
Answer: 97.11 ± 52.00 (53.6) μg × h^2/mL

Question: And the t0.5 [5, 9]?
Answer: 5.30 ± 6.92 (130.7) h

Question: And the AUMC0-t [5, 10]?
Answer: 203.85 ± 18.15 (8.9) μg × h^2/mL

Question: What about the t0.5 [5, 10] of the same molecule?
Answer: 2.26 ± 0.70 (31.0) h

Question: Which “inhibition” value [1] does the source give for `CNC(=O)c1cc(Oc2ccc(NC(=O)Nc3ccc(Cl)c(C(F)(F)F)c3)cc2)ccn1` [sorafenib] here?
Answer: inhibited paracetamol glucuronidation

Question: Which “increase in AUC of SN-38” value [6] does the source give for `CCc1c2c(nc3ccc(O)cc13)-c1cc3c(c(=O)n1C2)COC(=O)[C@]3(O)CC` [SN-38] here?
Answer: about 40%

Question: For `CC(=O)Nc1ccc(O[C@@H]2O[C@H](C(=O)O)[C@@H](O)[C@H](O)[C@H]2O)cc1` [paracetamol glucuronide], which “decrease in AUC0-t” value ([5]; IL + PA vs IIIPA group) is on record?
Answer: 26%

Question: What about the “decrease in AUC0-∞” value ([5]; IL + PA vs IIIPA group) of the same molecule?
Answer: 29%

Question: And the “decrease in Cmax” value ([5]; IL + PA vs IIIPA group)?
Answer: 24%

Question: What about the “decrease in AUC0-t” value [5, 11] of the same molecule?
Answer: ~25.5%

Question: And the “decrease in AUC0-∞” value [5, 11]?
Answer: ~28.6%

Question: And the “decrease in Cmax” value [5, 11]?
Answer: about 24.4%

Question: What about the AUC0-t [5, 9] of the same molecule?
Answer: 101.50 ± 22.02 (21.7) μg × h/mL

Question: And the “AUC0-∞” value [5, 9]?
Answer: 109.94 ± 22.89 (20.8) μg × h/mL

Question: What about the Cmax [5, 9] of the same molecule?
Answer: 29.01 ± 7.62 (26.3) μg/mL

Question: What about the “paracetamol glucuronide/paracetamol ratio, AUC0-t” value [5, 10] of the same molecule?
Answer: 1.75 ± 0.47 (27.1)

Question: What about the “paracetamol glucuronide/paracetamol ratio, Cmax” value [5, 10] of the same molecule?
Answer: 1.67 ± 0.41 (24.7)

Question: And the AUC0-t [5, 10]?
Answer: 136.24 ± 23.58 (17.31) μg × h/mL

Question: And the “AUC0-∞” value [5, 10]?
Answer: 154.08 ± 35.58 (23.09) μg × h/mL

Question: And the Cmax [5, 10]?
Answer: 38.38 ± 3.75 (9.76) μg/mL

Question: What about the “paracetamol glucuronide/paracetamol ratio, AUC0-t” value [5, 12] of the same molecule?
Answer: 3.68 ± 1.67 (45.4)

Question: And the “paracetamol glucuronide/paracetamol ratio, AUC0-∞” value [5, 12]?
Answer: 3.36 ± 2.37 (70.6)

Question: What about the “paracetamol glucuronide/paracetamol ratio, Cmax” value [5, 12] of the same molecule?
Answer: 3.58 ± 1.85 (51.5)

Question: Which “inhibition” value [1] does the source give for `Cc1nc(Nc2ncc(C(=O)Nc3c(C)cccc3Cl)s2)cc(N2CCN(CCO)CC2)n1` [dasatinib] here?
Answer: inhibited paracetamol glucuronidation

Question: With `Cc1cn(-c2cc(NC(=O)c3ccc(C)c(Nc4nccc(-c5cccnc5)n4)c3)cc(C(F)(F)F)c2)cn1` [nilotinib] as the molecule, how does the “inhibition” value [1] read?
Answer: slight inhibitory effect

Question: Which “increase in AUC0-t” value ([5]; IL + PA vs IIIPA group) does the source give for `CC(=O)Nc1ccc(OS(=O)(=O)O)cc1` [paracetamol sulphate] here?
Answer: ~61% and 61.4%

Question: What about the AUC0-t [5, 9] of the same molecule?
Answer: 116.04 ± 27.02 (23.3) μg × h/mL

Question: And the “AUC0-∞” value [5, 9]?
Answer: 130.23 ± 31.32 (24.1) μg × h/mL

Question: And the Cmax [5, 9]?
Answer: 35.15 ± 6.61 (18.8) μg/mL

Question: What about the “paracetamol sulphate/paracetamol ratio, AUC0-t” value [5, 10] of the same molecule?
Answer: 0.91 ± 0.43 (47.3)

Question: What about the “paracetamol sulphate/paracetamol ratio, AUC0-∞” value [5, 10] of the same molecule?
Answer: 1.05 ± 0.45 (43.1)

Question: And the “paracetamol sulphate/paracetamol ratio, Cmax” value [5, 10]?
Answer: 0.88 ± 0.46 (52.7)

Question: What about the AUC0-t [5, 10] of the same molecule?
Answer: 71.92 ± 31.04 (43.2) μg × h/mL

Question: And the “AUC0-∞” value [5, 10]?
Answer: 82.42 ± 32.71 (39.7) μg × h/mL

Question: What about the Cmax [5, 10] of the same molecule?
Answer: 19.41 ± 7.05 (36.4) μg/mL

Question: And the “paracetamol sulphate/paracetamol ratio, AUC0-t” value [5, 12]?
Answer: 4.27 ± 2.29 (53.5)

Question: And the “paracetamol sulphate/paracetamol ratio, AUC0-∞” value [5, 12]?
Answer: 4.86 ± 2.74 (56.5)

Question: What about the “paracetamol sulphate/paracetamol ratio, Cmax” value [5, 12] of the same molecule?
Answer: 4.73 ± 3.02 (64.0)
